# Like-named read-outs stand apart in the source and are kept apart here.
# Biological target: T1, N-terminal His6-tagged Mdm225-117 (Homo sapiens, UniProt Q00987)
# T1 construct: 25-117 fusion protein; made in house; host or cells: E. coli BL21 DE3 pLySS, pET-14B vector
# Test: Fluorescence polarization competitive binding assay with fluorescein labeled p53 peptide (Flu-p53)
# Conditions: for fold decrease in binding affinity: relative to 18 (3-chloro-phenylalanine at R1)
# Description: The relative affinities of peptides for N-terminal His6-tagged Mdm225-117 were determined using fluorescence polarization based competitive binding assay with fluorescein labeled p53 peptide, Flu-p53. The polarization experiments were performed with a DTX 880 Multimode Detector (Beckman) at 25° C., with excitation and emission wavelengths at 485 nm and 535 nm, respectively. All samples were prepared in 96 well plates in 0.1% pluronic F-68 (Sigma).
# For competition binding experiments, a solution of 250 nM Mdm2 and 15 nM Flu-p53 in buffer (10 mM PBS pH 7.4, 5 mM EDTA, 0.5 mM DTT, 0.1% pluronic F-68) was incubated at 25° C. in a 96 well plate. After 30 minutes, appropriate concentrations of the oxopiperazine (1 nM-100 μM) were added to the Mdm2-Flu-p53 mixture and the resulting mixtures were incubated at 25° C. for 1 hour before measuring the degree of dissociation of Flu-p53 by polarization. The EC50 was fit into equation (2) to calculate the Ki value of the oxopiperazine. Ki=KD1*FSB*((LT/(LST*FSB2−(KD1+LST+RT)*FSB+RT))−1(1−FSB)) (2)
# where: • KD=KD of fluorescent probe Flu-p53 • RT=Total concentration of Mdm2 protein • LST=total concentration of p53 fluorescent peptide • FSB=Fraction of bound […] (at EC50) • LT=total concentration of oxopiperazine (EC50)
# The binding affinity (KD) values reported for each peptide are the averages of 3-5 individual experiments, and were determined by fitting the experimental data to a sigmoidal dose-response nonlinear regression model on GraphPad Prism 5.0 (Roehrl et al., Biochemistry 43:16056 (2004), which is hereby incorporated by reference in its entirety).
# A previously-described fluorescence polarization competition assay with a fluorescein-labeled p53 peptide was utilized to probe the binding affinity of the mimetics (Henchey et al., ChemBiochem 11:2104 (2010); Knight et al., Anal. Biochem. 300:230 (2002), each of which is hereby incorporated by reference in its entirety). […] To examine the effect of the R3 position on the binding properties, a series of compounds was designed in which this position was changed to hydrophobic, anionic, or cationic residues. These studies were performed in the context of the dimers (1-4) as well as oxopiperazine monomers linked to uncyclized dipeptides (see Table 4, supra). […] Importantly, comparisons of dimers 3 (FWLL) and 4 (FWFL) with the monomer-dipeptide sequences 11 and 12 support the hypothesis that cyclization of dipeptides in oxopiperazine rings provides a significant boost to the ability of these helix mimetics to target protein pockets Ramachandran Plots (Ramachandran & Sasisekharan, Adv. Protein Chem. 23:283 (1968), which is hereby incorporated by reference in its entirety) obtained from quantum mechanical calculations further illustrate the flexibility of the uncyclized derivative (FIGS. 9C-D) as compared to the cyclic dimer (FIGS. 9A-B).
# [1] = Table 5, restated by sequence, read-out: Experimental Kd
# [2] = Table 3, oxopiperazine dimers, competitive fluorescence polarization assay, read-out: Kd (μM), binding affinity for Mdm2
# [3] = Table 6, computationally predicted dimers, competitive fluorescence polarization assay, read-out: Kd (μM), binding affinity for Mdm2
smiles,measurement,setting,value
"CCCC[C@@H](C(N)=O)N1CCN(C(=O)[C@H](Cc2c[nH]c3ccccc23)N2CCN[C@@H](Cc3ccccc3)C2=O)[C@@H](Cc2ccccc2)C1=O [Mimetic 13, FWF(Nle)-NH2]",Kd,[1],2.46 µM
"CC(C)C[C@@H](C(N)=O)N1CCN(C(=O)[C@H](C)N2CCN[C@@H](Cc3ccccc3)C2=O)[C@@H](Cc2ccccc2)C1=O [Mimetic 8, FAFL-NH2]",Kd,[2],63.9 ± 6.8 µM
"CC(C)C[C@@H](C(N)=O)N1CCN(C(=O)[C@H](Cc2c[nH]c3ccccc23)N2CCN[C@@H](Cc3ccc(Cl)cc3)C2=O)[C@@H](Cc2ccccc2)C1=O [Mimetic 20, F(4-Cl)WFL-NH2]",Kd,[3],1.29 ± 0.06 µM
same,fold decrease in binding affinity,,4 fold
"NCCCC[C@@H](C(N)=O)N1CCN(C(=O)[C@H](Cc2c[nH]c3ccccc23)N2CCN[C@@H](Cc3ccccc3)C2=O)[C@@H](Cc2ccccc2)C1=O [Mimetic 6, FWFK-NH2]","binding to Mdm2, in words",,rather poor binder
"CC(C)C[C@@H](C(=O)O)N1CCN(C(=O)[C@H](Cc2c[nH]c3ccccc23)N2CCN[C@@H](Cc3ccccc3)C2=O)[C@@H](CCCCN)C1=O [Mimetic 2, FWKL-OH]","binding to Mdm2, in words",,appreciably lower affinity
"CC(C)C[C@@H](C(N)=O)N1CCN(C(=O)[C@H](Cc2c[nH]c3ccccc23)N2CCN[C@@H](CCCCN)C2=O)[C@@H](Cc2ccccc2)C1=O [Mimetic 7, KWFL-NH2]","binding to Mdm2, in words",,poor binder
"CC(C)C[C@@H](C(=O)O)N1CCN(C(=O)[C@H](Cc2c[nH]c3ccccc23)N2CCN[C@@H](Cc3ccccc3)C2=O)[C@@H](C)C1=O [Mimetic 1, FWAL-OH]",Kd,[2],65.4 ± 0.28 µM
same,Kd,"oxopiperazine trimers, method not stated, read-out: Kd2",3.1 ± 2.4 µM
same,Kd,"read-out: dissociation constant, Kd",65 µM
"COc1ccc(C[C@@H]2NCCN([C@@H](Cc3c[nH]c4ccccc34)C(=O)N3CCN([C@@H](CC(C)C)C(N)=O)C(=O)[C@@H]3Cc3ccccc3)C2=O)cc1 [Mimetic 17, Y(O—Me)WFL-NH2]","binding to Mdm2, in words",,slightly better than 16
same,Kd,[3],0.32 ± 0.01 µM
"CC(C)C[C@@H](C(N)=O)N1CCN(C(=O)[C@H](Cc2c[nH]c3ccccc23)N2CCN[C@@H](Cc3ccccc3)C2=O)[C@@H](Cc2ccccc2)C1=O [Mimetic 5, FWFL-NH2]",Kd,[2],2.88 ± 0.12 µM
"CC(C)C[C@@H](C(N)=O)N1CCN(C(=O)[C@H](Cc2c[nH]c3ccccc23)N2CCN[C@@H](Cc3ccc(O)cc3)C2=O)[C@@H](Cc2ccccc2)C1=O [Mimetic 16, YWFL-NH2]",Kd,[1],0.4 µM
same,Kd,read-out: ligand for Mdm2 (affinity),0.4 µM
"CC(C)C[C@@H](C(N)=O)N1CCN(C(=O)[C@H](Cc2c[nH]c3ccccc23)N2CCN[C@@H](Cc3cccc(Cl)c3)C2=O)[C@@H](Cc2ccccc2)C1=O [Mimetic 18, F(3-Cl)WFL-NH2]","binding to Mdm2, in words",,slightly better than 16
same,Kd,[1],0.33 µM
"CC(C)C[C@@H](C(N)=O)N1CCN(C(=O)[C@H](Cc2c[nH]c3ccccc23)N2CCN[C@@H](Cc3cccc4ccccc34)C2=O)[C@@H](Cc2ccccc2)C1=O [Mimetic 15, (Nap)WFL-NH2]",Kd,[1],0.85 µM
same,fold higher affinity than 5,relative to mimetic 5,three-fold higher affinity
"Cc1cccc(C[C@@H]2NCCN([C@@H](Cc3c[nH]c4ccccc34)C(=O)N3CCN([C@@H](CC(C)C)C(N)=O)C(=O)[C@@H]3Cc3ccccc3)C2=O)c1 [Mimetic 19, F(3-Me)WFL-NH2]",Kd,[1],2.6 µM
same,fold decrease in binding affinity,,8 fold

# Reference: US11180481B2, “Oxopiperazine helix mimetics as inhibitors of the p53-MDM2 interaction” (NEW YORK UNIVERSITY, priority 2014, dated 2021)
